Where “and” joins values, the source holds several entries; their conditions need not be identical. Identical values can stand only once.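 48-hour exposure; five concentrations; linearly interpolated endpoints. GI50 is the concentration that inhibits growth by half. TGI: concentration producing complete growth inhibition.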
Key:
Assay in all cases: growth of human tumour cells (NCI), 48 h
NCI-H522 lung = system: NCI-H522 lung
HT29 colon = system: HT29 colon
MCF7 breast = system: MCF7 breast
UACC-62 melanoma = system: UACC-62 melanoma
HOP-92 NSCLC = system: HOP-92 NSCLC
HS 578T breast = system: HS 578T breast
EKVX NSCLC = system: EKVX NSCLC
OVCAR-5 ovarian = system: OVCAR-5 ovarian
K-562 leukemia = system: K-562 leukemia
HL-60(TB) leukemia = system: HL-60(TB) leukemia

SMILES | GI50 (NCI-H522 lung) | TGI (NCI-H522 lung) | GI50 (HT29 colon) | TGI (HT29 colon) [µM] | GI50 (MCF7 breast) | TGI (MCF7 breast) | GI50 (UACC-62 melanoma) | TGI (UACC-62 melanoma) | GI50 (HOP-92 NSCLC) | TGI (HOP-92 NSCLC) | GI50 (HS 578T breast) | TGI (HS 578T breast) [µM] | GI50 (EKVX NSCLC) | TGI (EKVX NSCLC) | GI50 (OVCAR-5 ovarian) | TGI (OVCAR-5 ovarian) | GI50 (K-562 leukemia) | TGI (K-562 leukemia) | GI50 (HL-60(TB) leukemia) | TGI (HL-60(TB) leukemia) [µM]
O=C(Nc1ccncc1)C(=O)c1cn(S(=O)(=O)c2ccccc2F)c2ccccc12 | 0.371 µM | 4.09 µM | 0.45 µM | > 31.9 | 0.547 µM | 27.5 µM | 0.708 µM | > 36.4 µM | 2.93 µM | 60.2 µM | 5.27 µM | > 100 | 3.72 µM | > 100 µM | 5.38 µM | 98.2 µM | 1.37 µM | > 100 µM | 0.576 µM | 
CC(=O)Oc1cccc2c1C(=O)C(Br)(Br)CCC2 |  | 4.55 µM |  | 14 |  | 5.71 µM |  | 20.9 µM |  | 10.4 µM |  | 39.7 |  | 26.7 µM |  | 21.9 µM |  | 20.8 µM |  | 6.51
O=C(N/N=C/c1ccc(O)cc1O)c1ccc(Nc2ccnc(C(F)(F)F)c2)cc1 | 13.5 µM | > 70 µM | > 100 µM | > 100 |  | > 100 µM | 0.0485 µM | > 100 µM | 15 µM | > 75.6 µM | 4.4 µM | 29 | 8.91 µM | > 75.1 µM | > 100 µM | > 100 µM | > 20.7 µM | > 100 µM | > 34.1 µM | > 100
O=C(c1cc(-c2cc3c(cc2C(=O)N2Cc4ccccc4C[C@H]2CN2CCOCC2)OCO3)n2c1CCCC2)N(c1ccccc1)c1ccc(O)cc1 | 22.9 µM | > 100 µM | 5.14 µM | > 100 | 3.52 µM | > 100 µM | 8.62 µM | > 100 µM | 2.72 µM | 15 µM | 6.05 µM | > 100 | 5.31 µM | > 100 µM | 5.87 µM | > 100 µM | 3.88 µM | > 100 µM | 2.62 µM | 7.16
CN1CCN(Cc2ccc(NC(=O)c3[nH]ncc3Nc3ncnc4c3CCC4)cc2)CC1 | 1.54 µM | 8.79 µM | 2.17 µM | 8.79 | 0.372 µM | 11.1 µM | 3.24 µM | 13.5 µM | 4.43 µM | 8.33 µM | 0.705 µM | 6.28 | 2.38 µM | 6.6 µM | 3.59 µM | 16.2 µM | 0.648 µM | 12.1 µM | 0.728 µM | 3.29
N#CSCC1CC(O)(c2ccccc2)C(c2ccccc2)C(c2ccc(F)cc2)O1 (stereo not drawn) | 2.4 µM | 7.24 µM | 2.61 µM | 11.6 | 2.8 µM | 11.6 µM | 1.9 µM | 5.58 µM | 2.13 µM | 7.88 µM | 3.18 µM | 12.9 | 2.46 µM | 7.58 µM | 7.24 µM | 19.4 µM | 1.5 µM | 5.97 µM | 0.672 µM | 2.96
CN(/N=N/c1nc(OCc2ccccc2)c2[nH]cnc2n1)C(=O)N(C)/N=N/c1nc(OCc2ccccc2)c2[nH]cnc2n1 | 39.4 µM | > 100 µM | 60.5 µM | > 100 | 43 µM | > 100 µM | 30.8 µM | > 100 µM | 29.9 µM | > 100 µM | 25.5 µM | 85.3 | 38.3 µM | > 100 µM | 63.7 µM | > 100 µM | 75.8 µM | > 100 µM | 63.7 µM | > 100
Cc1c(CN2CCC(Nc3ncnc4sc(CC(F)(F)F)cc34)CC2)ccc2c1cc(C#N)n2Cc1cn[nH]c1 | 3.77 µM and 5.24 µM | 23.2 µM and > 27.5 µM | 1.75 µM and 2.45 µM | 5.95 | 1.59 µM and 2.01 µM | 3.75 µM and 8.6 µM | 6.53 µM and 8.73 µM | 24.9 µM and > 44.3 µM | 3.81 µM and 1.09 µM | 25.1 µM and > 25.9 µM | 6.23 µM and 10.1 µM | > 68.3 | 1.92 µM and 3.08 µM | 21.2 µM and > 43.4 µM | 13.2 µM and > 33.4 µM | 34.9 µM and > 51 µM | 0.883 µM and 1.14 µM | 4.17 µM and 4.95 µM | 2.74 µM and 2.83 µM | 8.87
CCOc1cc2ncc(C#N)c(Nc3ccc(F)c(Cl)c3)c2cc1NC(=O)/C=C/CN(C)C | 0.0231 µM | 0.732 µM | 0.827 µM | > 5.95 | 1.23 µM | 5.56 µM | 0.449 µM | > 5.09 µM | 0.254 µM | > 4.39 µM | 0.381 µM | > 10 | 0.0187 µM | > 6.51 µM | 0.344 µM | > 5.93 µM | 0.36 µM | > 4.21 µM | 0.57 µM | > 5.51
O=C1C(Cl)=C(N2CCOCC2)C(=O)c2ccccc21 | 1.67 µM | 3.23 µM | 5.94 µM | 21.8 | 3.49 µM | 17.9 µM | 3.06 µM | 10.7 µM | 1.52 µM | 3 µM | 20.8 µM | 69.6 | 3.75 µM | 14.3 µM | 20.7 µM | 36.4 µM | 2.15 µM | 7.8 µM | 2.33 µM | 5.32
COc1cc2c(OC)c(c1)CCCC1=CC(=O)C=C(CCC2)C1=O |  | 46.2 µM |  | > 100 |  | > 100 µM |  | > 100 µM |  | 36.6 µM |  | > 100 |  | > 87.4 µM |  | > 100 µM |  | 34.6 µM |  | 24.6
Cn1c(=O)c2[nH]c(COCc3nc4c([nH]3)c(=O)n(C)c(=O)n4C)nc2n(C)c1=O |  | > 100 µM |  | > 100 |  | > 100 µM |  | > 100 µM |  | > 100 µM |  | > 100 |  | > 100 µM |  | > 100 µM |  | > 100 µM |  | > 100

Source: PubChem BioAssay (NCI)
